Experimental data taken from patent US20020137929A1, “1 - (3-heterocyclylphenyl) isothiourea, -isourea, -guanidine and -amidine herbicidal agents” (Intellectual Property Department, BASF Aktiengesellschaft, priority 1998, published 2002).

Legend:
[1] = system: TRZAWR (Wheat, Winter, cv Riband); assay: Preemergence herbicidal evaluation; format: in vivo, Triticum aestivum; settings: rated 4-5 weeks after treatment
Outline: (§1)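 Greenhouse preemergence test: seed-soil mix sown on ~1 inch soil; aqueous acetone spray at equivalent of ~0.0156–0.500 kg/ha; greenhouse-held and watered; scored 0–9 visually at 4–5 weeks.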

[2] = system: GLXMAW (Soybean, Williams); assay: Preemergence herbicidal evaluation; format: in vivo, Glycine max, (L.) Merr. cv Williams; settings: rated 4-5 weeks after treatment
Outline: as §1

ABUTH (Velvetleaf) [3] = assay: Postemergence herbicidal evaluation; format: in vivo, Abutilon theophrasti
Outline: (§2)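 Seedlings grown about two weeks were sprayed at 40 psi with compound dispersed in 50/50 acetone/water plus 0.5% TWEEN 20, at about 0.0156 to 0.500 kg/ha. Plants were kept in the greenhouse and scored 4–5 weeks later on a 0–9 visual scale against untreated controls.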

ZEAMX (Corn, Field) [4] = assay: Postemergence herbicidal evaluation; format: in vivo, Zea mays
Outline: as §2

[5] = system: CHEAL (Lambsquarters, Common); assay: Postemergence herbicidal evaluation; format: in vivo, Chenopodium album
Outline: as §2

[6] = system: IPOHE (Morningglory, Ivyleaf); assay: Preemergence herbicidal evaluation; format: in vivo, Ipomoea hederacea; settings: rated 4-5 weeks after treatment
Outline: as §1

[7] = system: CHEAL (Lambsquarters, Common); assay: Preemergence herbicidal evaluation; format: in vivo, Chenopodium album; settings: rated 4-5 weeks after treatment
Outline: as §1

SETVI (Foxtail, Green) = assay: Postemergence herbicidal evaluation; format: in vivo, Setaria viridis
Outline: as §2

ABUTH (Velvetleaf) [8] = assay: Preemergence herbicidal evaluation; format: in vivo, Abutilon theophrasti; settings: rated 4-5 weeks after treatment
Outline: as §1

[9] = system: IPOHE (Morningglory, Ivyleaf); assay: Postemergence herbicidal evaluation; format: in vivo, Ipomoea hederacea
Outline: as §2

ZEAMX (Corn, Field) [10] = assay: Preemergence herbicidal evaluation; format: in vivo, Zea mays; settings: rated 4-5 weeks after treatment
Outline: as §1

CASOB (Sicklepod) = assay: Preemergence herbicidal evaluation; format: in vivo, Cassia obtusifolia; settings: rated 4-5 weeks after treatment
Outline: as §1

CYPIR (Rice Flatsedge) = assay: Postemergence weed control under flooded paddy conditions; format: in vivo, Cyperus iria; settings: postemergence weeds, rated 3 to 4 weeks after treatment
Outline: (§3)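 Containers holding 3–5 cm weeds and rice at 1.5–2.5 leaves are flooded to 1.5–3 cm above soil. Compound in 50/50 v/v aqueous/acetone is then added directly to the water, about 0.0313–0.500 kg/ha. Plants are kept in the greenhouse and rated 0–9 visually at 3–4 weeks.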

ORYSAT (Rice, Tebonnet) = assay: Postemergence herbicidal evaluation; format: in vivo, Oryza sativa, (L.) Tebonnet
Outline: as §2

ECHCG (Barnyardgrass) [11] = assay: Postemergence herbicidal evaluation; format: in vivo, Echinochloa crus-galli
Outline: as §2

ECHCG (Barnyardgrass) [12] = assay: Preemergence herbicidal evaluation; format: in vivo, Echinochloa crus-galli; settings: rated 4-5 weeks after treatment
Outline: as §1

CYPSE (Flatsedge) = assay: Postemergence weed control under flooded paddy conditions; format: in vivo, Cyperus serotinus; settings: postemergence weeds, rated 3 to 4 weeks after treatment
Outline: as §3

SMILES: C=CCN1C(=O)C(CC(=O)OC)SC1=Nc1cc(-n2c(=O)cc(C(F)(F)F)n(C)c2=O)c(F)cc1Cl (stereo not drawn) [Compound 64, Methyl 3-allyl-2-{{2-chloro-5-[3,6-dihydro-3-methyl-2,6-dioxo-4-(trifluoromethyl)-1(2H)-pyrimidinyl]-4-fluorophenyl}imino}-4-oxo-5-thiazolidineacetate]
- Preemergence herbicidal rating TRZAWR ([1]; rate 0.0156 kg/ha): 0.0
- Preemergence herbicidal rating TRZAWR ([1]; rate 0.0313 kg/ha): 0.0
- Preemergence herbicidal rating TRZAWR ([1]; rate 0.0625 kg/ha): 1.0
- Preemergence herbicidal rating TRZAWR ([1]; rate 0.1250 kg/ha): 1.0
- Preemergence herbicidal rating TRZAWR ([1]; rate 0.2500 kg/ha): 3.0
- Preemergence herbicidal rating GLXMAW ([2]; rate 0.0156 kg/ha): 0.0
- Preemergence herbicidal rating GLXMAW ([2]; rate 0.0313 kg/ha): 0.0
- Preemergence herbicidal rating GLXMAW ([2]; rate 0.0625 kg/ha): 2.0
- Preemergence herbicidal rating GLXMAW ([2]; rate 0.1250 kg/ha): 3.0
- Preemergence herbicidal rating GLXMAW ([2]; rate 0.2500 kg/ha): 5.0
- Postemergence herbicidal rating ABUTH (ABUTH (Velvetleaf) [3]; Rate 0.0158 kg/ha): 9.0
- Postemergence herbicidal rating ABUTH (ABUTH (Velvetleaf) [3]; Rate 0.0315 kg/ha): 9.0
- Postemergence herbicidal rating ABUTH (ABUTH (Velvetleaf) [3]; Rate 0.0630 kg/ha): 9.0
- Postemergence herbicidal rating ZEAMX (ZEAMX (Corn, Field) [4]; Rate 0.0158 kg/ha): 7.0
- Postemergence herbicidal rating ZEAMX (ZEAMX (Corn, Field) [4]; Rate 0.0315 kg/ha): 8.0
- Postemergence herbicidal rating ZEAMX (ZEAMX (Corn, Field) [4]; Rate 0.0630 kg/ha): 8.0
- Postemergence herbicidal rating CHEAL ([5]; Rate 0.0158 kg/ha): 9.0
- Postemergence herbicidal rating CHEAL ([5]; Rate 0.0315 kg/ha): 9.0
- Postemergence herbicidal rating CHEAL ([5]; Rate 0.0630 kg/ha): 9.0
- Preemergence herbicidal rating IPOHE ([6]; rate 0.0156 kg/ha): 0.0
- Preemergence herbicidal rating IPOHE ([6]; rate 0.0313 kg/ha): 0.0
- Preemergence herbicidal rating IPOHE ([6]; rate 0.0625 kg/ha): 9.0
- Preemergence herbicidal rating IPOHE ([6]; rate 0.1250 kg/ha): 9.0
- Preemergence herbicidal rating IPOHE ([6]; rate 0.2500 kg/ha): 9.0
- Preemergence herbicidal rating CHEAL ([7]; rate 0.0156 kg/ha): 9.0
- Preemergence herbicidal rating CHEAL ([7]; rate 0.0313 kg/ha): 9.0
- Preemergence herbicidal rating CHEAL ([7]; rate 0.0625 kg/ha): 9.0
- Preemergence herbicidal rating CHEAL ([7]; rate 0.1250 kg/ha): 9.0
- Preemergence herbicidal rating CHEAL ([7]; rate 0.2500 kg/ha): 9.0
- Postemergence herbicidal rating SETVI (SETVI (Foxtail, Green); Rate 0.0158 kg/ha): 6.0
- Postemergence herbicidal rating SETVI (SETVI (Foxtail, Green); Rate 0.0315 kg/ha): 7.0
- Postemergence herbicidal rating SETVI (SETVI (Foxtail, Green); Rate 0.0630 kg/ha): 9.0
- Preemergence herbicidal rating ABUTH (ABUTH (Velvetleaf) [8]; rate 0.0156 kg/ha): 1.0
- Preemergence herbicidal rating ABUTH (ABUTH (Velvetleaf) [8]; rate 0.0313 kg/ha): 9.0
- Preemergence herbicidal rating ABUTH (ABUTH (Velvetleaf) [8]; rate 0.0625 kg/ha): 9.0
- Preemergence herbicidal rating ABUTH (ABUTH (Velvetleaf) [8]; rate 0.1250 kg/ha): 9.0
- Preemergence herbicidal rating ABUTH (ABUTH (Velvetleaf) [8]; rate 0.2500 kg/ha): 9.0
- Postemergence herbicidal rating IPOHE ([9]; Rate 0.0158 kg/ha): 9.0
- Postemergence herbicidal rating IPOHE ([9]; Rate 0.0315 kg/ha): 9.0
- Postemergence herbicidal rating IPOHE ([9]; Rate 0.0630 kg/ha): 9.0
- Preemergence herbicidal rating ZEAMX (ZEAMX (Corn, Field) [10]; rate 0.0156 kg/ha): 0.0
- Preemergence herbicidal rating ZEAMX (ZEAMX (Corn, Field) [10]; rate 0.0313 kg/ha): 0.0
- Preemergence herbicidal rating ZEAMX (ZEAMX (Corn, Field) [10]; rate 0.0625 kg/ha): 1.0
- Preemergence herbicidal rating ZEAMX (ZEAMX (Corn, Field) [10]; rate 0.1250 kg/ha): 3.0
- Preemergence herbicidal rating ZEAMX (ZEAMX (Corn, Field) [10]; rate 0.2500 kg/ha): 7.0
- Preemergence herbicidal rating CASOB (CASOB (Sicklepod); rate 0.0156 kg/ha): 0.0
- Preemergence herbicidal rating CASOB (CASOB (Sicklepod); rate 0.0313 kg/ha): 0.0
- Preemergence herbicidal rating CASOB (CASOB (Sicklepod); rate 0.0625 kg/ha): 1.0
- Preemergence herbicidal rating CASOB (CASOB (Sicklepod); rate 0.1250 kg/ha): 5.0
- Preemergence herbicidal rating CASOB (CASOB (Sicklepod); rate 0.2500 kg/ha): 4.0
- Herbicidal rating CYPIR (CYPIR (Rice Flatsedge); Rate 0.0313 kg/ha): 0.0
- Herbicidal rating CYPIR (CYPIR (Rice Flatsedge); Rate 0.0625 kg/ha): 2.0
- Herbicidal rating CYPIR (CYPIR (Rice Flatsedge); Rate 0.1250 kg/ha): 2.0
- Herbicidal rating CYPIR (CYPIR (Rice Flatsedge); Rate 0.2500 kg/ha): 7.0
- Postemergence herbicidal rating ORYSAT (ORYSAT (Rice, Tebonnet); Rate 0.0158 kg/ha): 6.0
- Postemergence herbicidal rating ORYSAT (ORYSAT (Rice, Tebonnet); Rate 0.0315 kg/ha): 6.0
- Postemergence herbicidal rating ORYSAT (ORYSAT (Rice, Tebonnet); Rate 0.0630 kg/ha): 6.0
- Postemergence herbicidal rating ECHCG (ECHCG (Barnyardgrass) [11]; Rate 0.0158 kg/ha): 3.0
- Postemergence herbicidal rating ECHCG (ECHCG (Barnyardgrass) [11]; Rate 0.0315 kg/ha): 5.0
- Postemergence herbicidal rating ECHCG (ECHCG (Barnyardgrass) [11]; Rate 0.0630 kg/ha): 7.0
- Preemergence herbicidal rating ECHCG (ECHCG (Barnyardgrass) [12]; rate 0.0156 kg/ha): 0.0
- Preemergence herbicidal rating ECHCG (ECHCG (Barnyardgrass) [12]; rate 0.0313 kg/ha): 0.0
- Preemergence herbicidal rating ECHCG (ECHCG (Barnyardgrass) [12]; rate 0.0625 kg/ha): 1.0
- Preemergence herbicidal rating ECHCG (ECHCG (Barnyardgrass) [12]; rate 0.1250 kg/ha): 3.0
- Preemergence herbicidal rating ECHCG (ECHCG (Barnyardgrass) [12]; rate 0.2500 kg/ha): 6.0
- Herbicidal rating CYPSE (CYPSE (Flatsedge); Rate 0.0313 kg/ha): 0.0
- Herbicidal rating CYPSE (CYPSE (Flatsedge); Rate 0.0625 kg/ha): 0.0
- Herbicidal rating CYPSE (CYPSE (Flatsedge); Rate 0.1250 kg/ha): 0.0
- Herbicidal rating CYPSE (CYPSE (Flatsedge); Rate 0.2500 kg/ha): 0.0
